The results in this text go back to paper PMC5791972 (PLoS ONE, 2018).

In one data set the test system is NMRI mice. Kind of data set: Locomotor activity. The format is in vivo, mouse. The conditions noted are these: 0.1, 3 or 10 mg/kg PO. Here is the method:
NMRI mice were habituated to their room for at least 2 weeks after the delivery and kept under standard conditions in groups of 4–5 animals per cage. Food and water were available ad libitum.
Spontaneous motility and rearing were measured by an automated system (Coulbourn Instruments, USA). Animals were introduced into transparent square cages (40 cm length) that are equipped with 2 light barrier systems in order to monitor the movements as well as rearing behavior automatically. The movements of the animals were recorded for 30 minutes. At the end of the experiment, the animals were sacrificed via isofluorane inhalation and subsequent decapitation.

The test system of data set [1] is basolateral amygdala neurons. In words: Slice recordings of CCK-4 induced EPSCs. It counts as cell-based, mouse.
Data set [2] has as its target T1, choline transporter (CHT1) (h) (Homo sapiens, UniProt Q9GZV3).
T1 construct: host or cells: CHO cells
T1 sequence (Q9GZV3 1-580): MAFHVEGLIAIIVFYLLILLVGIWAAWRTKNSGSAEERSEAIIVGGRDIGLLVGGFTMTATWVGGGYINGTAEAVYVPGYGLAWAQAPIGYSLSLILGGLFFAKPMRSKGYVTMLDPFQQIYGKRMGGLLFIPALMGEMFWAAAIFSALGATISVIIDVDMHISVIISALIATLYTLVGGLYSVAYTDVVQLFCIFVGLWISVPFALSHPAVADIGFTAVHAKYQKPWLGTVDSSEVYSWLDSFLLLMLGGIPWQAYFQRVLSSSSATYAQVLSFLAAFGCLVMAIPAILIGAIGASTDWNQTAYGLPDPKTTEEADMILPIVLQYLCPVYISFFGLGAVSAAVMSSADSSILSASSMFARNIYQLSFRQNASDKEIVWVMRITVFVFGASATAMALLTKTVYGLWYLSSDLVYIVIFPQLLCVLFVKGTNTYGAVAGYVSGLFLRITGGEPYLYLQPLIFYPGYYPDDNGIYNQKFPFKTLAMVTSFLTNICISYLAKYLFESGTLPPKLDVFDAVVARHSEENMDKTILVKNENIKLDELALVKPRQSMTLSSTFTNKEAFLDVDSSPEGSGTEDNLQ
The format is binding. The conditions noted are these: 1.0E-06 M.

The next data set has as its target 5-HT7 (h) (Homo sapiens, UniProt P34969). Kind of data set: biochemical.
Another data set has as its target T2, Y1 (h) (Homo sapiens, UniProt P25929).
T2 construct: (endogenous); host or cells: SK-N-MC cells
T2 sequence (P25929 1-384): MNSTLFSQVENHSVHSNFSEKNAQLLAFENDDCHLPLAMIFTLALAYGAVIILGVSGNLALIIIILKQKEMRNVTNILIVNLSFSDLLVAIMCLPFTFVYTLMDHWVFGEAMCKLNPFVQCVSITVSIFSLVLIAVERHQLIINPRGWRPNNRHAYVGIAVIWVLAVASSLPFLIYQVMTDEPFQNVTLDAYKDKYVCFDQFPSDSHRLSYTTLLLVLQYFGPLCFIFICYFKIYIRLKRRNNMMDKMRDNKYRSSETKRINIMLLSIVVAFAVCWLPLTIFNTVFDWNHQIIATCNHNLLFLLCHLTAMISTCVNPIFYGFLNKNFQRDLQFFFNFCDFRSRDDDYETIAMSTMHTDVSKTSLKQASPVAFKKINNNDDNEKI
The format is binding. The conditions noted are these: 1.0E-06 M.

Another data set addresses TRPC6 (Homo sapiens, UniProt Q9Y210). Kind of data set: cell-based.

Read-outs that look alike come from different tables or passages of the source.

Sequence of 5-HT7 (h) (P34969 whole entry): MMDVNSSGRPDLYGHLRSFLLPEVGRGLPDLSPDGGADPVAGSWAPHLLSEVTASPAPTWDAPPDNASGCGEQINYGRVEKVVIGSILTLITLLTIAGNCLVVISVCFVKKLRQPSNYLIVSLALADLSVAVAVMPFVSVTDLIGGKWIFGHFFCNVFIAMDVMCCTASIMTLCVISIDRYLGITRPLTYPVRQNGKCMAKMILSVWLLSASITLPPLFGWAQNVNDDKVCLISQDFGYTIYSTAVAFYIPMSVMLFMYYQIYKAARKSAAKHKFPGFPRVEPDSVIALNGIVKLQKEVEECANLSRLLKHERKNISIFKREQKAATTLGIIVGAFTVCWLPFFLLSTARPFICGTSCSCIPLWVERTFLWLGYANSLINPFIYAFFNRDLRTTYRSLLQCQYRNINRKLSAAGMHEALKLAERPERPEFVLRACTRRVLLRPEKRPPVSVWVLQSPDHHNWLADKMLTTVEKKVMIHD
Sequence of TRPC6 (Q9Y210 whole entry, species assumed): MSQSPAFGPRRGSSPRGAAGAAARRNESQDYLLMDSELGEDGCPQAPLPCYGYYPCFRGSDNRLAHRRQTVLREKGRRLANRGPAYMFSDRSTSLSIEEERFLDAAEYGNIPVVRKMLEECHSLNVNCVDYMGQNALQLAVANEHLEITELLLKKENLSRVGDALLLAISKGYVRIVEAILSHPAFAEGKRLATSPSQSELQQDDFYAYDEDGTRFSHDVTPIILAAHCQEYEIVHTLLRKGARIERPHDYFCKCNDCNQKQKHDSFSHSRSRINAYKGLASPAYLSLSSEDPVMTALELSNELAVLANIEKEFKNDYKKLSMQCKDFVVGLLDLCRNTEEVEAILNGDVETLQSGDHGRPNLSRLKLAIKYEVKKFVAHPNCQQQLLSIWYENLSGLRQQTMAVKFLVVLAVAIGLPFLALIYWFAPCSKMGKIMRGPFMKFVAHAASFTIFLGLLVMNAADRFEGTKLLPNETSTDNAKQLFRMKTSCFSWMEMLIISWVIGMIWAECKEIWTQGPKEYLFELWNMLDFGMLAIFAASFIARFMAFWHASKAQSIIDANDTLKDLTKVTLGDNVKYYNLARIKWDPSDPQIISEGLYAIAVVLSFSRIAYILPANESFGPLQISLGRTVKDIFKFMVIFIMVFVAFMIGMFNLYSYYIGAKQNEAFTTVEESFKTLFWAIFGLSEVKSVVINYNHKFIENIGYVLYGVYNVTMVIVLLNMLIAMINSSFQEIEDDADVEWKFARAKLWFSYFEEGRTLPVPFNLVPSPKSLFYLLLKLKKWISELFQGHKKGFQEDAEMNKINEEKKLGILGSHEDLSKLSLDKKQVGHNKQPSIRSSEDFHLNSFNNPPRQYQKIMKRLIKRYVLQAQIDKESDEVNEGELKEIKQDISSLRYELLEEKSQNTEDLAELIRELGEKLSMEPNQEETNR

On to `Cn1c(=O)n(CCCO)c(=O)c2c1nc(Oc1cccc(Cl)c1)n2Cc1ccc(Cl)cc1` [HC-070], for which the locomotor activity entry with NMRI mice is recorded as “not impacted”. In data set [1] (20 nM, CCK-4 1 μM), the “effect on CCK-4 stimulated increase of postsynaptic currents” value was “pronounced attenuation of the CCK-4 related effect”. In addition, the “basal synaptic activity prior to CCK-4 addition” value in data set [1] (slices pretreated with 20 nM HC-070, n = 8) is 154±35 postsynaptic currents/minute.

In general, inhibition refers to the change of the read-out against control, counted positive when it falls. Usually IC50 stands for the midpoint of a concentration-inhibition curve. A higher IC50 goes with weaker potency. Consider `Cn1c(=O)n(CCCO)c(=O)c2c1nc(Oc1cccc(OC(F)(F)F)c1)n2Cc1ccc(Cl)cc1` [HC-608], for which the inhibition at 1 µM is -5.8% in data set [2] (read-out: % Inhibition 1st); -1.9% in data set [2] (read-out: % Inhibition 2nd); -3.9% in data set [2] (read-out: % Inhibition Mean); 12.1% on 5-HT7 (h) (read-out: % Inhibition 1st); 10.9% at 5-HT7 (h) (read-out: % Inhibition 2nd); 11.5% on 5-HT7 (h) (read-out: % Inhibition Mean). For the same compound, the figures for the inhibition at 1 µM on Y1 (h) (read-out: % Inhibition 1st), on Y1 (h) (read-out: % Inhibition 2nd) and on Y1 (h) (read-out: % Inhibition Mean) were -12.8%, -14.1% and -13.4%, respectively. Also, the IC50 against TRPC6 is over 1640 nM.
